Where two headings read alike, the source gives them in different places. One block for each compound: values may come before it.
What was measured:
[1] = system: maximal electroshock seizure (generalized tonic-clonic seizures); test: Maximal Electroshock Seizure; format: in vivo, mice; settings: i.p.; for protection in the MES test in mice at 100 mg/kg (in words) / MES protection, animals protected/animals tested at 0.5 h: mice; for MES protection, animals protected/animals tested at 0.5 h: 100 mg/kg (stated for 19 and 20)
human Nav1.2 [2] = molecular target: T1, human Nav1.2 (Homo sapiens, UniProt Q99250); format: cell-based
T1 sequence (Q99250 whole entry): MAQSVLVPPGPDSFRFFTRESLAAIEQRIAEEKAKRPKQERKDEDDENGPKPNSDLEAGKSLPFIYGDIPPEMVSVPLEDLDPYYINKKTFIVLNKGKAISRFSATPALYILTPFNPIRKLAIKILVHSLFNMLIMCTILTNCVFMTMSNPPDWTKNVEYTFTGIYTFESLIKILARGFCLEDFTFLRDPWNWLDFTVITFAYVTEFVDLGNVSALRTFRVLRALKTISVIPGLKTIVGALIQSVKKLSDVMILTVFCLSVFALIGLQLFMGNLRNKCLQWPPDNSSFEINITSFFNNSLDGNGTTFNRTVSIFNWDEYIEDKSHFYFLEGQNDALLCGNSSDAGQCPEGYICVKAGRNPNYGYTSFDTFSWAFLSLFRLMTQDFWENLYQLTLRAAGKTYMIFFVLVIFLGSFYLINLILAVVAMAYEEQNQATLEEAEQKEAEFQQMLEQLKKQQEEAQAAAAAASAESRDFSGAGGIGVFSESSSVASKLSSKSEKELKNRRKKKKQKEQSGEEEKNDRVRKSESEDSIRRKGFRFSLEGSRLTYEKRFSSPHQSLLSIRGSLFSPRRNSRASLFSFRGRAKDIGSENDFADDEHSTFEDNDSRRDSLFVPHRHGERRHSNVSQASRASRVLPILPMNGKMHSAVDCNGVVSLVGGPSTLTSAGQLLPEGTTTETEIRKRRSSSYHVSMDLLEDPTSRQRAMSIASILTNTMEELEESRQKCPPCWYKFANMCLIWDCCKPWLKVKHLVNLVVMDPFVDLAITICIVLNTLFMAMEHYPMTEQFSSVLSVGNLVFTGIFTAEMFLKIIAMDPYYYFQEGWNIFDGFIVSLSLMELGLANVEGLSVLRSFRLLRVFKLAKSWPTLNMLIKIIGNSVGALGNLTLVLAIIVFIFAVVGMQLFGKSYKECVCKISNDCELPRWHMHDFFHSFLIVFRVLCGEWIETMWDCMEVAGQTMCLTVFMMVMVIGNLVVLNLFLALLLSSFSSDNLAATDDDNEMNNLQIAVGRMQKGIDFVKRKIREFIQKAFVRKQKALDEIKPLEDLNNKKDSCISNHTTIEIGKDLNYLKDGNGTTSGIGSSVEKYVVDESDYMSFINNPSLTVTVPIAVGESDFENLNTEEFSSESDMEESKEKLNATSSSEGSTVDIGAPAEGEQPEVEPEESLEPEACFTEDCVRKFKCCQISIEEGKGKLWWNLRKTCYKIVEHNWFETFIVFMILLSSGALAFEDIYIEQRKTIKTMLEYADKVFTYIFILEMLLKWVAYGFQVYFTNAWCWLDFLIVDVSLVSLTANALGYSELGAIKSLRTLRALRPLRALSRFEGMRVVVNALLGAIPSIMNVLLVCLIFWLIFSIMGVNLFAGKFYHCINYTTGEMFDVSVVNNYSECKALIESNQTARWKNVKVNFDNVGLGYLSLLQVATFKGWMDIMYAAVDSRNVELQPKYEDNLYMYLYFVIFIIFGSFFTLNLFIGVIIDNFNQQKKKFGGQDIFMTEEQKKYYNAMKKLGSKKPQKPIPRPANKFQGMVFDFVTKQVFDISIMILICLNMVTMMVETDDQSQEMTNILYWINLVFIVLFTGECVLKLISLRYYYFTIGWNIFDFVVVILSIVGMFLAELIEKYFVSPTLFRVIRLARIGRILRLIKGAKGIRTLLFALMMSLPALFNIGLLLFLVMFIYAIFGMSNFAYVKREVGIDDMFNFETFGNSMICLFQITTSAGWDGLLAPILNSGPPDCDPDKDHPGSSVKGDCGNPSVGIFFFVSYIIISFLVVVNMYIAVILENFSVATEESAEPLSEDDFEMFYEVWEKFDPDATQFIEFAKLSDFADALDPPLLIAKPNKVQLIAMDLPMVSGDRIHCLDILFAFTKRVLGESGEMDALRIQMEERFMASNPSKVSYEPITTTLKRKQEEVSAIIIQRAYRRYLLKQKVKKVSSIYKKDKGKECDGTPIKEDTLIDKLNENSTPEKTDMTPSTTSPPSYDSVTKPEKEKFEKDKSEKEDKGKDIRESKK

mice = test: Acute toxicity, minimal motor impairment; format: in vivo; settings: i.p.
[3] = system: maximal electroshock seizure (generalized tonic-clonic seizures); test: MES test, oral administration to rats; format: in vivo; settings: 30 mg/kg
human Nav1.2 [4] = molecular target: T1, human Nav1.2; settings: cited from earlier work

Compound: Clc1cccc(-c2nc(-c3ccccc3)c[nH]2)c1 [Compound 12]
protection in the MES test in mice at 100 mg/kg (in words) [1]: Some protection

action on hNaV1.2 current at 10 μM (human Nav1.2 [2]): 30.1%
Compound: COc1ccc(-c2nc(-c3ccccc3)c[nH]2)cc1 [Compound 13]

Compound: O=[N+]([O-])c1ccc(-c2nc(-c3ccccc3)c[nH]2)cc1 [Compound 15]
protection in the MES test in mice at 100 mg/kg (in words) [1]: Some protection

Compound: O=[N+]([O-])c1cccc(-c2nc(-c3ccccc3)c[nH]2)c1 [Compound 16]
MES protection, animals protected/animals tested at 0.5 h [1]: 2/3

Compound: FC(F)(F)c1ccc(-c2nc(-c3ccccc3)c[nH]2)cc1 [Compound 17]
dose up to which no toxicity was observed (mice): 500 mg/kg
MES protection, animals protected/animals tested at 0.25 h ([1]; 0.25 h, text says rats, Supplementary Data Table 1): 2/3
action on hNaV1.2 current at 10 μM (human Nav1.2 [2]): 22.7%
fold greater potency for hNav1.2 than phenytoin (human Nav1.2 [2]; ratio of IC50 values): 4 fold

Compound: Clc1ccc(-c2c[nH]c(-c3ccccc3)n2)cc1 [Compound 19]
MES protection, animals protected/animals tested at 0.5 h [1]: 3/3
ability to prevent seizure spread in the MES test after oral administration (in words) [3]: not able to prevent seizure spread

Compound: Clc1cccc(-c2c[nH]c(-c3ccccc3)n2)c1 [Compound 20]
dose up to which no toxicity was observed (mice): 500 mg/kg
MES protection, animals protected/animals tested at 0.5 h [1]: 3/3
action on hNaV1.2 current at 10 μM (human Nav1.2 [2]): 16.8%

Compound: COc1ccc(-c2c[nH]c(-c3ccccc3)n2)cc1 [Compound 21]
ability to prevent seizure spread in the MES test after oral administration (in words) [3]: not able to prevent seizure spread

Compound: COc1cccc(-c2c[nH]c(-c3ccccc3)n2)c1 [Compound 22]
ability to prevent seizure spread in the MES test after oral administration (in words) [3]: not able to prevent seizure spread

Compound: O=[N+]([O-])c1ccc(-c2c[nH]c(-c3ccccc3)n2)cc1 [Compound 23]
protection in the MES test in mice at 100 mg/kg (in words) [1]: Some protection

Compound: O=[N+]([O-])c1cccc(-c2c[nH]c(-c3ccccc3)n2)c1 [Compound 24]
MES protection, animals protected/animals tested at 0.5 h [1]: 2/3
ability to prevent seizure spread in the MES test after oral administration (in words) [3]: not able to prevent seizure spread

Compound: FC(F)(F)c1ccc(-c2c[nH]c(-c3ccccc3)n2)cc1 [Compound 25]
protection in the MES test in mice at 100 mg/kg (in words) [1]: Some protection

Compound: FC(F)(F)c1cccc(-c2c[nH]c(-c3ccccc3)n2)c1 [Compound 26]
protection in the MES test in mice at 100 mg/kg (in words) [1]: Some protection

Compound: FC(F)(F)c1cccc(-c2c[nH]c(-c3cccc(C(F)(F)F)c3)n2)c1 [Compound 29]
protection in the MES test in mice at 100 mg/kg (in words) [1]: Some protection

Compound: O=C1NC(=O)C(c2ccccc2)(c2ccccc2)N1 [Phenytoin]
action on hNaV1.2 current at 10 μM (human Nav1.2 [4]): 10.6%

Reference: paper PMC2970651 (Bioorganic & medicinal chemistry, 2010)
